Bridge positions count the residues as written; N and C are the ends. Square brackets hold non-standard residues; d marks the D form. Peptide text beside a SMILES is read from it. * marks the point of attachment. Bip = N[C@@H](Cc1ccc(-c2ccccc2)cc1)C(=O)O; Phe(3-Me) = Cc1cccc(C[C@H](N)C(=O)O)c1; 2Pal = N[C@@H](Cc1ccccn1)C(=O)O; 3Pal = N[C@@H](Cc1cccnc1)C(=O)O; 4Pal = N[C@@H](Cc1ccncc1)C(=O)O; d2Pal = N[C@H](Cc1ccccn1)C(=O)O; Cha = N[C@@H](CC1CCCCC1)C(=O)O; Phg = N[C@H](C(=O)O)c1ccccc1; Carboxymethyl = O=C(O)C*; Orn = NCCC[C@H](N)C(=O)O; Aun = NCCCCCCCCCCC(=O)O; Dab = NCC[C@H](N)C(=O)O; Dap = NC[C@H](N)C(=O)O

The target in this test is T1, PD-1/PD-L1 interaction (PE-labeled human PD-L1-Ig binding to Jurkat cell line over-expressing human PD-1) (Homo sapiens, UniProt Q15116).
T1 construct: expressed in transfected cells; host or cells: Jurkat
T1 sequence (Q15116 25-288): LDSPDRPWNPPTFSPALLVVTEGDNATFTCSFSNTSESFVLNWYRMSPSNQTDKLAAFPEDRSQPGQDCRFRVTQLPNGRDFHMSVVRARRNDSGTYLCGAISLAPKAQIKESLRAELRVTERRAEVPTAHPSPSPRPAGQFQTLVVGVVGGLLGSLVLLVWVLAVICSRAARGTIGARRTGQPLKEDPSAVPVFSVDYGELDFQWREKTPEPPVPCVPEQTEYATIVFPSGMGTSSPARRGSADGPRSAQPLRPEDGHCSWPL
The experiment in a line: Jurkat-PD-1 Cell Binding High-Content Screening Assay (CBA). The format is cell-based. Conditions: Jurkat cell line over-expressing human PD-1; PE-labeled PD-L1-Ig 20 nM final; read-out: Jurkat hPD1-PDL1 IC50. In a few lines: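 Binding of fluorescent PD-L1-Ig (phycoerythrin on Ig tag, 20 nM final, 1 h) measured by high-content imaging of fixed, Hoechst-counterstained Jurkat-hPD-1 cells. Compound added 2 h at 37° C beforehand, in DMEM with 10% fetal calf serum.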
Regarding `Cc1cccc(C[C@@H]2NC(=O)[C@H](CC(=O)O)NC(=O)[C@H](Cc3ccc(OCC(=O)O)cc3)NC(=O)[C@H](CN)NC(=O)CSC[C@@H](C(=O)N[C@@H](CCN)C(=O)NCCCCCCCCCCC(=O)O)NC(=O)[C@H](Cc3ccc(O)cc3)NC(=O)[C@H](C(C)C)NC(=O)[C@H](CC(C)C)NC(=O)[C@H](CCN)NC(=O)[C@@H](CC(C)C)NC(=O)[C@H](CCCN)NC(=O)[C@H](Cc3ccc(O)cc3)NC(=O)[C@H](Cc3ccc(-c4ccccc4)cc3)NC(=O)[C@H](C(C)C)NC2=O)c1` [Compound 2758] ({CH2CO}-[Dap]Y(Carboxymethyl)D[Phe(3-Me)]V[Bip]Y[Orn][dL][Dab]LVYC[Dab][Aun]-OH; thioether N-14), the IC50 is 99.1 nM.
With `Cc1cccc(C[C@@H]2NC(=O)[C@H](CC(=O)O)NC(=O)[C@H](Cc3ccc(OCC(=O)O)cc3)NC(=O)[C@H](CN)NC(=O)CSC[C@@H](C(=O)N[C@@H](CCN)C(=O)NCCCCCCCCCCC(=O)O)NC(=O)[C@H](Cc3ccc(O)cc3)NC(=O)[C@H](C(C)C)NC(=O)[C@H](CC(C)C)NC(=O)[C@H](CCN)NC(=O)[C@@H](CC(C)C)NC(=O)[C@H](CCCN)NC(=O)[C@H](Cc3ccc(O)cc3)NC(=O)[C@H](Cc3ccc(-c4ccccc4)cc3)NC(=O)[C@H](CC(C)C)NC2=O)c1` [Compound 2759] ({CH2CO}-[Dap]Y(Carboxymethyl)D[Phe(3-Me)]L[Bip]Y[Orn][dL][Dab]LVYC[Dab][Aun]-OH; thioether N-14) the figure was 71.1 nM.
Under `Cc1cccc(C[C@@H]2NC(=O)[C@H](CC(=O)O)NC(=O)[C@H](Cc3ccc(OCC(=O)O)cc3)NC(=O)[C@H](CN)NC(=O)CSC[C@@H](C(=O)N[C@@H](CCN)C(=O)NCCCCCCCCCCC(=O)O)NC(=O)[C@H](Cc3ccc(OCC(=O)O)cc3)NC(=O)[C@H](C(C)C)NC(=O)[C@H](CC(C)C)NC(=O)[C@H](CCN)NC(=O)[C@@H](CC(C)C)NC(=O)[C@H](CCCN)NC(=O)[C@H](Cc3ccc(O)cc3)NC(=O)[C@H](Cc3ccc(-c4ccccc4)cc3)NC(=O)[C@H](C(C)C)NC2=O)c1` [Compound 2760] ({CH2CO}-[Dap]Y(Carboxymethyl)D[Phe(3-Me)]V[Bip]Y[Orn][dL][Dab]LVY(Carboxymethyl)C[Dab][Aun]-OH; thioether N-14) stands 38.1 nM.
With `Cc1cccc(C[C@@H]2NC(=O)[C@H](CC(=O)O)NC(=O)[C@H](Cc3ccc(OCC(=O)O)cc3)NC(=O)[C@H](CN)NC(=O)CSC[C@@H](C(=O)N[C@@H](CCN)C(=O)NCCCCCCCCCCC(=O)O)NC(=O)[C@H](c3ccccc3)NC(=O)[C@H](C(C)C)NC(=O)[C@H](CC(C)C)NC(=O)[C@H](CCN)NC(=O)[C@@H](CC(C)C)NC(=O)[C@H](CCCN)NC(=O)[C@H](Cc3ccc(O)cc3)NC(=O)[C@H](Cc3ccc(-c4ccccc4)cc3)NC(=O)[C@H](C(C)C)NC2=O)c1` [Compound 2761] ({CH2CO}-[Dap]Y(Carboxymethyl)D[Phe(3-Me)]V[Bip]Y[Orn][dL][Dab]LV[Phg]C[Dab][Aun]-OH; thioether N-14) the figure was 154 nM; with `Cc1cccc(C[C@@H]2NC(=O)[C@H](CC(=O)O)NC(=O)[C@H](Cc3ccc(OCC(=O)O)cc3)NC(=O)[C@H](CN)NC(=O)CSC[C@@H](C(=O)N[C@@H](CCN)C(=O)NCCCCCCCCCCC(=O)O)NC(=O)[C@H](c3ccccc3)NC(=O)[C@H](C(C)C)NC(=O)[C@H](CC3CCCCC3)NC(=O)[C@H](CCN)NC(=O)[C@@H](CC(C)C)NC(=O)[C@H](CCCN)NC(=O)[C@H](Cc3ccc(O)cc3)NC(=O)[C@H](Cc3ccc(-c4ccccc4)cc3)NC(=O)[C@H](C(C)C)NC2=O)c1` [Compound 2762] ({CH2CO}-[Dap]Y(Carboxymethyl)D[Phe(3-Me)]V[Bip]Y[Orn][dL][Dab][Cha]V[Phg]C[Dab][Aun]-OH; thioether N-14), 197 nM.
`Cc1cccc(C[C@@H]2NC(=O)[C@H](CC(=O)O)NC(=O)[C@H](Cc3ccc(OCC(=O)O)cc3)NC(=O)[C@H](CN)NC(=O)CSC[C@@H](C(=O)N[C@@H](CCN)C(=O)NCCCCCCCCCCC(=O)O)NC(=O)[C@H](Cc3ccccn3)NC(=O)[C@H](C(C)C)NC(=O)[C@H](CC(C)C)NC(=O)[C@H](CCN)NC(=O)[C@@H](CC(C)C)NC(=O)[C@H](CCCN)NC(=O)[C@H](Cc3ccc(O)cc3)NC(=O)[C@H](Cc3ccc(-c4ccccc4)cc3)NC(=O)[C@H](C(C)C)NC2=O)c1` [Compound 2763] ({CH2CO}-[Dap]Y(Carboxymethyl)D[Phe(3-Me)]V[Bip]Y[Orn][dL][Dab]LV[2Pal]C[Dab][Aun]-OH; thioether N-14): the IC50 came to 54.9 nM.
Under `Cc1cccc(C[C@@H]2NC(=O)[C@H](CC(=O)O)NC(=O)[C@H](Cc3ccc(OCC(=O)O)cc3)NC(=O)[C@H](CN)NC(=O)CSC[C@@H](C(=O)N[C@@H](CCN)C(=O)NCCCCCCCCCCC(=O)O)NC(=O)[C@@H](Cc3ccccn3)NC(=O)[C@H](C(C)C)NC(=O)[C@H](CC3CCCCC3)NC(=O)[C@H](CCN)NC(=O)[C@@H](CC(C)C)NC(=O)[C@H](CCCN)NC(=O)[C@H](Cc3ccc(O)cc3)NC(=O)[C@H](Cc3ccc(-c4ccccc4)cc3)NC(=O)[C@H](C(C)C)NC2=O)c1` [Compound 2764] ({CH2CO}-[Dap]Y(Carboxymethyl)D[Phe(3-Me)]V[Bip]Y[Orn][dL][Dab][Cha]V[d2Pal]C[Dab][Aun]-OH; thioether N-14) stands 68.9 nM; under `Cc1cccc(C[C@@H]2NC(=O)[C@H](CC(=O)O)NC(=O)[C@H](Cc3ccc(OCC(=O)O)cc3)NC(=O)[C@H](CN)NC(=O)CSC[C@@H](C(=O)N[C@@H](CCN)C(=O)NCCCCCCCCCCC(=O)O)NC(=O)[C@H](Cc3cccnc3)NC(=O)[C@H](C(C)C)NC(=O)[C@H](CC(C)C)NC(=O)[C@H](CCN)NC(=O)[C@@H](CC(C)C)NC(=O)[C@H](CCCN)NC(=O)[C@H](Cc3ccc(O)cc3)NC(=O)[C@H](Cc3ccc(-c4ccccc4)cc3)NC(=O)[C@H](C(C)C)NC2=O)c1` [Compound 2765] ({CH2CO}-[Dap]Y(Carboxymethyl)D[Phe(3-Me)]V[Bip]Y[Orn][dL][Dab]LV[3Pal]C[Dab][Aun]-OH; thioether N-14), 62.4 nM; under `Cc1cccc(C[C@@H]2NC(=O)[C@H](CC(=O)O)NC(=O)[C@H](Cc3ccc(OCC(=O)O)cc3)NC(=O)[C@H](CN)NC(=O)CSC[C@@H](C(=O)N[C@@H](CCN)C(=O)NCCCCCCCCCCC(=O)O)NC(=O)[C@H](Cc3cccnc3)NC(=O)[C@H](C(C)C)NC(=O)[C@H](CC3CCCCC3)NC(=O)[C@H](CCN)NC(=O)[C@@H](CC(C)C)NC(=O)[C@H](CCCN)NC(=O)[C@H](Cc3ccc(O)cc3)NC(=O)[C@H](Cc3ccc(-c4ccccc4)cc3)NC(=O)[C@H](C(C)C)NC2=O)c1` [Compound 2766] ({CH2CO}-[Dap]Y(Carboxymethyl)D[Phe(3-Me)]V[Bip]Y[Orn][dL][Dab][Cha]V[3Pal]C[Dab][Aun]-OH; thioether N-14), 55.9 nM.
With `Cc1cccc(C[C@@H]2NC(=O)[C@H](CC(=O)O)NC(=O)[C@H](Cc3ccc(OCC(=O)O)cc3)NC(=O)[C@H](CN)NC(=O)CSC[C@@H](C(=O)N[C@@H](CCN)C(=O)NCCCCCCCCCCC(=O)O)NC(=O)[C@H](Cc3ccncc3)NC(=O)[C@H](C(C)C)NC(=O)[C@H](CC(C)C)NC(=O)[C@H](CCN)NC(=O)[C@@H](CC(C)C)NC(=O)[C@H](CCCN)NC(=O)[C@H](Cc3ccc(O)cc3)NC(=O)[C@H](Cc3ccc(-c4ccccc4)cc3)NC(=O)[C@H](C(C)C)NC2=O)c1` [Compound 2767] ({CH2CO}-[Dap]Y(Carboxymethyl)D[Phe(3-Me)]V[Bip]Y[Orn][dL][Dab]LV[4Pal]C[Dab][Aun]-OH; thioether N-14) the figure was 42.7 nM; with `Cc1cccc(C[C@@H]2NC(=O)[C@H](CC(=O)O)NC(=O)[C@H](Cc3ccc(OCC(=O)O)cc3)NC(=O)[C@H](CN)NC(=O)CSC[C@@H](C(=O)N[C@@H](CCN)C(=O)NCCCCCCCCCCC(=O)O)NC(=O)[C@H](Cc3ccncc3)NC(=O)[C@H](C(C)C)NC(=O)[C@H](CC3CCCCC3)NC(=O)[C@H](CCN)NC(=O)[C@@H](CC(C)C)NC(=O)[C@H](CCCN)NC(=O)[C@H](Cc3ccc(O)cc3)NC(=O)[C@H](Cc3ccc(-c4ccccc4)cc3)NC(=O)[C@H](C(C)C)NC2=O)c1` [Compound 2768] ({CH2CO}-[Dap]Y(Carboxymethyl)D[Phe(3-Me)]V[Bip]Y[Orn][dL][Dab][Cha]V[4Pal]C[Dab][Aun]-OH; thioether N-14), 55.2 nM.
On to `Cc1cccc(C[C@@H]2NC(=O)[C@H](CC(=O)O)NC(=O)[C@H](Cc3ccc(OCC(=O)O)cc3)NC(=O)[C@H](CN)NC(=O)CSC[C@@H](C(=O)N[C@@H](CCN)C(=O)NCCCCCCCCCCC(=O)O)NC(=O)[C@@H](CCC(N)=O)NC(=O)[C@H](C(C)C)NC(=O)[C@H](CC3CCCCC3)NC(=O)[C@H](CCN)NC(=O)[C@@H](CC(C)C)NC(=O)[C@H](CCCN)NC(=O)[C@H](Cc3ccc(O)cc3)NC(=O)[C@H](Cc3ccc(-c4ccccc4)cc3)NC(=O)[C@H](CC(C)C)NC2=O)c1` [Compound 2769] ({CH2CO}-[Dap]Y(Carboxymethyl)D[Phe(3-Me)]L[Bip]Y[Orn][dL][Dab][Cha]V[dQ]C[Dab][Aun]-OH; thioether N-14), for which the IC50 is 60.7 nM.
With `Cc1cccc(C[C@@H]2NC(=O)[C@H](CC(=O)O)NC(=O)[C@H](Cc3ccc(OCC(=O)O)cc3)NC(=O)[C@H](CN)NC(=O)CSC[C@@H](C(=O)N[C@@H](CCN)C(=O)NCCCCCCCCCCC(=O)O)NC(=O)[C@@H](CCC(N)=O)NC(=O)[C@H](C(C)C)NC(=O)[C@H](CC(C)C)NC(=O)[C@H](CCN)NC(=O)[C@@H](CC(C)C)NC(=O)[C@H](CCCN)NC(=O)[C@H](Cc3ccc(O)cc3)NC(=O)[C@H](Cc3ccc(-c4ccccc4)cc3)NC(=O)[C@H](C(C)C)NC2=O)c1` [Compound 2770] ({CH2CO}-[Dap]Y(Carboxymethyl)D[Phe(3-Me)]V[Bip]Y[Orn][dL][Dab]LV[dQ]C[Dab][Aun]-OH; thioether N-14), the IC50 was 37.8 nM.

A word on the IC50: it is the concentration that inhibits the measured activity by half.

The values are drawn from patent publication US20260022142A1, “MACROCYCLIC IMMUNOMODULATORS” (Bristol-Myers Squibb Company, priority 2022, published 2026).
